Each block holds one compound with its values, some of them ahead of it.
Assays:
Test in all cases: radiometric filter-binding kinase assay
[1] = target: MAPK11 (human) (UniProt Q15759)
[2] = target: PAK6 (human) (UniProt Q9NQU5)
[3] = target: ABL1 (human) (UniProt P00519)
[4] = target: PRKCG (human) (UniProt P05129)
[5] = target: PTK6 (human) (UniProt Q13882)
[6] = target: STK16 (human) (UniProt O75716)
[7] = target: STK33 (human) (UniProt Q9BYT3)
[8] = target: TEK (human) (UniProt Q02763)
[9] = target: ZAP70 (human) (UniProt P43403)
ZAP70 (human), sequence (P43403 whole entry, looked up): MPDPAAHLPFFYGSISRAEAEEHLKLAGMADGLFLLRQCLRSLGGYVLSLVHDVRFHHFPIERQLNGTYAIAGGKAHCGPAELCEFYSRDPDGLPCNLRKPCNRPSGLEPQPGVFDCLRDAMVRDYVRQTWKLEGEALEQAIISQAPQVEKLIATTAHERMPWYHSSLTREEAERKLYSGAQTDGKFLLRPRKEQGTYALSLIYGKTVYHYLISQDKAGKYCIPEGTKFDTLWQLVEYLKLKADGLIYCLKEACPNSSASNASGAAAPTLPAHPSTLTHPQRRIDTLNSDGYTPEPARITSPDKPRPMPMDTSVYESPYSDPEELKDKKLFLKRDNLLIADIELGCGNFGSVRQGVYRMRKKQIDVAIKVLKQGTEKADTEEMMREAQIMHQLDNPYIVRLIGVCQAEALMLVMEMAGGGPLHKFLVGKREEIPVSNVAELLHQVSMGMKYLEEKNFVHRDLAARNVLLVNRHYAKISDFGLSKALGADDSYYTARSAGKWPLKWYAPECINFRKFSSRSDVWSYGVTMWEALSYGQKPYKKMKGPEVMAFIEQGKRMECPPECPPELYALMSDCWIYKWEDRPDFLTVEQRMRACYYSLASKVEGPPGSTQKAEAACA

MAPK11 (human), sequence (Q15759 whole entry, looked up): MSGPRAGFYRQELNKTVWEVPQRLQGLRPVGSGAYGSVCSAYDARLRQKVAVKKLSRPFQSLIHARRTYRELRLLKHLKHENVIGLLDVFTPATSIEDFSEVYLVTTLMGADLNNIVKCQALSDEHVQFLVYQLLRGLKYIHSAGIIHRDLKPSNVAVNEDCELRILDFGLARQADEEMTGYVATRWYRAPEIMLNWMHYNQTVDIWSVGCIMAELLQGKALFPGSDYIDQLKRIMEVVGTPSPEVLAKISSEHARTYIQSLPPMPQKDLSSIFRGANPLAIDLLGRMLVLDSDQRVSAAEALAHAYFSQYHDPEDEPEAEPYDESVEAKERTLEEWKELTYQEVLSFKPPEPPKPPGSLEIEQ
PAK6 (human), sequence (Q9NQU5 whole entry, looked up): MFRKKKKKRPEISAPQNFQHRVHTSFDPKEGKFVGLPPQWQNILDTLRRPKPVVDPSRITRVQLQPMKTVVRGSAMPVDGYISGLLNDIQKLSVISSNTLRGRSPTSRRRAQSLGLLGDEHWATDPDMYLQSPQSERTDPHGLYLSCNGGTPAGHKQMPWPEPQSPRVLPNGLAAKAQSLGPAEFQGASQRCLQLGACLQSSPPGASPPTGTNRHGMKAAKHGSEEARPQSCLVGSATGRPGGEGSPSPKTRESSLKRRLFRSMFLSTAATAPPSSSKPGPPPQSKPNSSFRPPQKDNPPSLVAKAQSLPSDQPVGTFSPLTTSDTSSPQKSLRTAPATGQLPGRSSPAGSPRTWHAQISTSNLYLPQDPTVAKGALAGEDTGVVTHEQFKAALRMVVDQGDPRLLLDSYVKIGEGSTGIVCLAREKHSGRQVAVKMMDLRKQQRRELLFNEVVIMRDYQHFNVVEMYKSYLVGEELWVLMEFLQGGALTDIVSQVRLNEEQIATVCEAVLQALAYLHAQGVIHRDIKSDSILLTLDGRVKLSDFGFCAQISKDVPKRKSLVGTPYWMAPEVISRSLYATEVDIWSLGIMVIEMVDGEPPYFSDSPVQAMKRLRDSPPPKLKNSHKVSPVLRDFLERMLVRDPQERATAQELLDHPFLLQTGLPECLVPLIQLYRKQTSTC
ABL1 (human), sequence (P00519 whole entry, looked up): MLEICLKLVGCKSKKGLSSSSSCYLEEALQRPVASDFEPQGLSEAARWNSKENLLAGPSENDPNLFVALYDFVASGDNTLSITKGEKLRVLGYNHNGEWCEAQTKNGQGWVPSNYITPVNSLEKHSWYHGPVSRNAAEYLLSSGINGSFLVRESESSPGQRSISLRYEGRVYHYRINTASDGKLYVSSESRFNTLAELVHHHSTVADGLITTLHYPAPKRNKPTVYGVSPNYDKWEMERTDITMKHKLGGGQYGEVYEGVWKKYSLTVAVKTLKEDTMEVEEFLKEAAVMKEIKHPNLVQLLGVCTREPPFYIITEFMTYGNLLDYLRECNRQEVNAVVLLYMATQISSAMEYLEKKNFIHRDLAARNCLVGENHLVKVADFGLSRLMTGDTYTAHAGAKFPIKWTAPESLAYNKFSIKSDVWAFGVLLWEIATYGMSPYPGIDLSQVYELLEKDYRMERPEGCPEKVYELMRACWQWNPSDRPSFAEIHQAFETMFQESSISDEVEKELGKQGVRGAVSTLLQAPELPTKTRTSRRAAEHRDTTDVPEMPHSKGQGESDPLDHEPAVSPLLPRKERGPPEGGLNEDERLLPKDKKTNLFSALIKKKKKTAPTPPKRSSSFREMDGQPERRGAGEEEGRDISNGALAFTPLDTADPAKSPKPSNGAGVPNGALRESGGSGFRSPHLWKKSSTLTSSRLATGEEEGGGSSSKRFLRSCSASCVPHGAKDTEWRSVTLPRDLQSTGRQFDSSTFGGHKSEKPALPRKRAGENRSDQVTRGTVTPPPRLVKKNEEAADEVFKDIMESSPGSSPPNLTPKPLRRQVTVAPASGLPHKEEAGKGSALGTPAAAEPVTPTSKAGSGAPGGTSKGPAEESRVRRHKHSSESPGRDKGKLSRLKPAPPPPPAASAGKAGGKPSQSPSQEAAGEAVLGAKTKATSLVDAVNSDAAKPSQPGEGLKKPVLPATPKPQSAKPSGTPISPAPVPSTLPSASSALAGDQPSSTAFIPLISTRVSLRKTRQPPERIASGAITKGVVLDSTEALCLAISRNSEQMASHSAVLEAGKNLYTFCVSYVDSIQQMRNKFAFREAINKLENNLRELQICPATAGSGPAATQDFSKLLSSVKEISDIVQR
TEK (human), sequence (Q02763 whole entry, looked up): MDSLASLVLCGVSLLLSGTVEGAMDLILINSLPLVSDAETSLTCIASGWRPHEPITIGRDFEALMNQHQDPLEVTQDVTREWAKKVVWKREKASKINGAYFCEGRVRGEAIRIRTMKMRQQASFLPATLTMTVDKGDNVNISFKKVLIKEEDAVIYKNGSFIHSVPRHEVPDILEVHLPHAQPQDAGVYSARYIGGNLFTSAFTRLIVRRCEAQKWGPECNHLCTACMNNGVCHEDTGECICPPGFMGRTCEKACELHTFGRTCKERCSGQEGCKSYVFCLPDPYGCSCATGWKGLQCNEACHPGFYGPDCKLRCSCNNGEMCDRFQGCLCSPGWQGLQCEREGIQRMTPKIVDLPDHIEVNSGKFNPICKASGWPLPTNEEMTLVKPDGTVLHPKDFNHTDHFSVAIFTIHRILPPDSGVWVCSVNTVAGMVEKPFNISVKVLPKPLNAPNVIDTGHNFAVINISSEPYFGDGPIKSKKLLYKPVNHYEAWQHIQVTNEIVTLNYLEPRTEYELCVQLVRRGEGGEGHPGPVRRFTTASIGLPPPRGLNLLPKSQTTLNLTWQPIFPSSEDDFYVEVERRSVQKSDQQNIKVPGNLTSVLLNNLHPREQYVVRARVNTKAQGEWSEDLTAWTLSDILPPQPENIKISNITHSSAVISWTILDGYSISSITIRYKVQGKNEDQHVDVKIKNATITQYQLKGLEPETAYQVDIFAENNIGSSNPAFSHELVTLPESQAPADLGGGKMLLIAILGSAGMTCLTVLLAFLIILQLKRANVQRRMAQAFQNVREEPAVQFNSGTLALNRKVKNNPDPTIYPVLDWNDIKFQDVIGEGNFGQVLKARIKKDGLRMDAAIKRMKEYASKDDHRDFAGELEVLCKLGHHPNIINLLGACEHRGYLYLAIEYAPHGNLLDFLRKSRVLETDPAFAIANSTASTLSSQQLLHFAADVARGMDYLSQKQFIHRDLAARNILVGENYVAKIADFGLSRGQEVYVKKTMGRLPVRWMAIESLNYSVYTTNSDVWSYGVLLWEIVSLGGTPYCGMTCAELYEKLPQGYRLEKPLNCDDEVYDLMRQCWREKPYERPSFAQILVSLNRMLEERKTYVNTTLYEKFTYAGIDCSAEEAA
PTK6 (human), sequence (Q13882 whole entry, looked up): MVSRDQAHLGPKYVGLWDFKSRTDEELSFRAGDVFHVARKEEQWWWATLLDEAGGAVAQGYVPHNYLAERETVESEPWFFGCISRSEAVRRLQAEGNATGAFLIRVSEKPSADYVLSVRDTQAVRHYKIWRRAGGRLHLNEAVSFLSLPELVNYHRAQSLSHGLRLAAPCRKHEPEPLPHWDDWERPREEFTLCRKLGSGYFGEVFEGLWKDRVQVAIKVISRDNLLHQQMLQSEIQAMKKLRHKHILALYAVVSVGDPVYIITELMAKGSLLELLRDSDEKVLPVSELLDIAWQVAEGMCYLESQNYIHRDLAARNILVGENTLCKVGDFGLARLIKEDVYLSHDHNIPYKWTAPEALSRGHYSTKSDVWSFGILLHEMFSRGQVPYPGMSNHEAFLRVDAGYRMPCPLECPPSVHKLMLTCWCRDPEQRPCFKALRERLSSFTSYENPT

- residual activity ([1]; compound 1.0 µM): 102%
- residual activity ([1]; compound 10.0 µM): 100%
- residual activity ([2]; compound 1.0 µM): 121%
- residual activity ([2]; compound 10.0 µM): 110%
SMILES: FC(F)(F)c1ccc(-c2ccc(Oc3cncc4sc(-c5nn[nH]n5)cc34)cc2)cc1

- residual activity ([3]; compound 10.0 µM): 101%
- residual activity ([1]; compound 10.0 µM): 70%
- residual activity ([2]; compound 10.0 µM): 68%
- residual activity ([4]; compound 10.0 µM): 114%
- residual activity ([5]; compound 10.0 µM): 96%
- residual activity ([6]; compound 10.0 µM): 102%
- residual activity ([7]; compound 10.0 µM): 98%
- residual activity ([8]; compound 10.0 µM): 98%
- residual activity ([9]; compound 10.0 µM): 84%
SMILES: CC(C)C[C@H](NC(=O)CNC(=O)c1cc(Cl)ccc1Cl)B1OC(=O)CC(CC(=O)O)(C(=O)O)O1 (stereo not given in full)

- residual activity ([1]; compound 1.0 µM): 97%
- residual activity ([1]; compound 10.0 µM): 104%
- residual activity ([2]; compound 1.0 µM): 89%
- residual activity ([2]; compound 10.0 µM): 87%
SMILES: NC(=O)c1ccc(-c2ccc(Oc3cncc4sc(-c5nn[nH]n5)cc34)cc2)cc1

- residual activity ([1]; compound 0.1 µM): 87%
- residual activity ([1]; compound 1.0 µM): 76%
- residual activity ([1]; compound 10.0 µM): 48%
- residual activity ([2]; compound 0.1 µM): 71%
- residual activity ([2]; compound 1.0 µM): 72%
- residual activity ([2]; compound 10.0 µM): 27%
SMILES: Cc1ccc(Sc2cnc(Nc3cccc(Br)n3)s2)cc1C(=O)N1CCN(C(=O)CN)CC1

- residual activity ([1]; compound 0.1 µM): 89%
- residual activity ([1]; compound 1.0 µM): 61%
- residual activity ([2]; compound 0.1 µM): 111%
- residual activity ([2]; compound 1.0 µM): 113%
SMILES: Cc1cccc(-c2nn(C(=S)Nc3ccccc3)cc2-c2ccnc3ccccc23)n1

- residual activity ([3]; compound 0.1 µM): 110%
- residual activity ([3]; compound 1.0 µM): 106%
- residual activity ([3]; compound 10.0 µM): 109%
- residual activity ([1]; compound 0.1 µM): 99%
- residual activity ([1]; compound 1.0 µM): 106%
- residual activity ([1]; compound 10.0 µM): 95%
- residual activity ([2]; compound 0.1 µM): 105%
- residual activity ([2]; compound 1.0 µM): 108%
- residual activity ([2]; compound 10.0 µM): 103%
- residual activity ([4]; compound 0.1 µM): 101%
- residual activity ([4]; compound 1.0 µM): 109%
- residual activity ([4]; compound 10.0 µM): 96%
- residual activity ([5]; compound 0.1 µM): 104%
- residual activity ([5]; compound 1.0 µM): 93%
- residual activity ([5]; compound 10.0 µM): 104%
- residual activity ([6]; compound 0.1 µM): 104%
- residual activity ([6]; compound 1.0 µM): 98%
- residual activity ([6]; compound 10.0 µM): 100%
- residual activity ([7]; compound 0.1 µM): 100%
- residual activity ([7]; compound 1.0 µM): 100%
- residual activity ([7]; compound 10.0 µM): 89%
- residual activity ([8]; compound 0.1 µM): 141%
- residual activity ([8]; compound 1.0 µM): 118%
- residual activity ([8]; compound 10.0 µM): 113%
- residual activity ([9]; compound 0.1 µM): 116%
- residual activity ([9]; compound 1.0 µM): 106%
- residual activity ([9]; compound 10.0 µM): 92%
SMILES: CCCCCc1ccc(/C=C/[C@H](O)[C@@H](CO)NC)cc1

- residual activity ([1]; compound 0.1 µM): 88%
- residual activity ([1]; compound 1.0 µM): 89%
- residual activity ([1]; compound 10.0 µM): 97%
- residual activity ([2]; compound 0.1 µM): 99%
- residual activity ([2]; compound 1.0 µM): 83%
- residual activity ([2]; compound 10.0 µM): 86%
SMILES: CCc1cncnc1N1CCN(Cc2nc3cc(C(F)(F)F)ccc3[nH]2)CC1

- residual activity ([3]; compound 10.0 µM): 111%
- residual activity ([1]; compound 10.0 µM): 101%
- residual activity ([2]; compound 10.0 µM): 109%
- residual activity ([4]; compound 10.0 µM): 98%
- residual activity ([5]; compound 10.0 µM): 101%
- residual activity ([6]; compound 10.0 µM): 94%
- residual activity ([7]; compound 10.0 µM): 97%
- residual activity ([8]; compound 10.0 µM): 112%
- residual activity ([9]; compound 10.0 µM): 85%
SMILES: O=S(=O)(c1ccc(F)c2nonc12)N1CCN(c2ncc(C(F)(F)F)cc2Cl)CC1

- residual activity ([1]; compound 0.001 µM): 104%
- residual activity ([1]; compound 0.01 µM): 100%
- residual activity ([1]; compound 0.1 µM): 105%
- residual activity ([2]; compound 0.001 µM): 97%
- residual activity ([2]; compound 0.01 µM): 102%
- residual activity ([2]; compound 0.1 µM): 88%
SMILES: C/C(=C1/C(=O)Nc2ccc(NC(N)=O)cc21)c1ccc[nH]1

- residual activity ([1]; compound 1.0 µM): 91%
- residual activity ([1]; compound 10.0 µM): 94%
- residual activity ([2]; compound 1.0 µM): 97%
- residual activity ([2]; compound 10.0 µM): 109%
SMILES: Cc1cc(SCc2sc(-c3ccc(C(F)(F)F)cc3)nc2C)ccc1OCC(=O)O

- residual activity ([1]; compound 0.1 µM): 102%
- residual activity ([1]; compound 1.0 µM): 89%
- residual activity ([1]; compound 10.0 µM): 90%
- residual activity ([2]; compound 0.1 µM): 101%
- residual activity ([2]; compound 1.0 µM): 92%
- residual activity ([2]; compound 10.0 µM): 87%
SMILES: O=C(Nc1ccccc1-c1cn2c(CN3CCNCC3)csc2n1)c1cnc2ccccc2n1

- residual activity ([1]; compound 1.0 µM): 88%
- residual activity ([1]; compound 10.0 µM): 71%
- residual activity ([2]; compound 1.0 µM): 89%
- residual activity ([2]; compound 10.0 µM): 83%
SMILES: N#Cc1c(C2CCNCC2)cc(-c2c(O)cccc2OCC2CC2)nc1N

- residual activity ([1]; compound 1.0 µM): 91%
- residual activity ([1]; compound 10.0 µM): 74%
- residual activity ([2]; compound 1.0 µM): 72%
- residual activity ([2]; compound 10.0 µM): 78%
SMILES: O=C1Nc2nc(-c3c(O)cccc3OCC3CC3)cc(C3CCCNC3)c2CO1 (stereo not given)

- residual activity ([3]; compound 1.0 µM): 93%
- residual activity ([3]; compound 10.0 µM): 82%
- residual activity ([1]; compound 1.0 µM): 99%
- residual activity ([1]; compound 10.0 µM): 98%
- residual activity ([2]; compound 1.0 µM): 83%
- residual activity ([2]; compound 10.0 µM): 80%
- residual activity ([4]; compound 1.0 µM): 98%
- residual activity ([4]; compound 10.0 µM): 110%
- residual activity ([5]; compound 1.0 µM): 114%
- residual activity ([5]; compound 10.0 µM): 95%
- residual activity ([6]; compound 1.0 µM): 107%
- residual activity ([6]; compound 10.0 µM): 92%
- residual activity ([7]; compound 1.0 µM): 87%
- residual activity ([7]; compound 10.0 µM): 74%
- residual activity ([8]; compound 10.0 µM): 75%
- residual activity ([9]; compound 1.0 µM): 94%
- residual activity ([9]; compound 10.0 µM): 80%
SMILES: NC(=O)c1c(NC(=O)C2CC2)sc2c1CCCC2

— the kinase profiling compilation of Christmann-Franck et al. (2016)
